Results as given in US9504251B2, “Pesticidal compositions and related methods” (Dow AgroSciences LLC, priority 2014, dated 2016).

What was measured:
[1] = tested on: Sweetpotato Whitefly-crawler (Bemisia tabaci) (WF) (BEMITA); assay: Sweetpotato whitefly-crawler (WF) foliar spray assay on cotton plants; type: in vivo; conditions: 216 h, 200 ppm foliar spray on cotton plants, graded after 9 days, Abbott-corrected % control, disclosed compounds (TABLE 2), read-out: WF % Control (or Mortality) rating
Procedure: Foliar spray assay for WF was prepared as follows: Cotton plants (Gossypium hirsutum) grown in 3-inch pots, with 1 small (4-5 cm) true leaf, were used as test substrate. The plants were infested with 200-400 whitefly eggs 4-5 days prior to chemical application. Four pots with individual plants were used for each treatment. Tested compounds (2 mg) were dissolved in 1 mL of acetone solvent, forming stock solutions of 2000 ppm tested compound.
The stock solutions were diluted ten times with 0.025% TWEEN® 20 surfactant in H2O (diluents) to obtain the solution at 200 ppm tested compound. A hand-held aspirator-type sprayer was used for spraying the solution to both sides of cotton leaves until runoff. The control plants (solvent check) were sprayed with the diluent only containing 10% by volume of acetone solvent. Treated plants were held in a holding room for 9 days at approximately 25° C. and ambient relative humidity (RH) prior to grading. Evaluation was conducted by counting the number of live 3-4 nymph stage per plant under a microscope. Percent control was measured by using Abbott's correction formula (W. S. Abbott, “A Method of Computing the Effectiveness of an Insecticide,” J. Econ. Entomol. 18 (1925), pp. 265-267) as follows. Corrected % Control=100*(X−Y)/X
X=No. of live nymphs on solvent check plants and
Y=No. of live nymphs on treated plants.
(§1) The comparative compounds were tested for insecticidal activities against GPA and WF pests using the same test protocols described above for the disclosed compounds.

[2] = tested on: Green Peach Aphid (Myzus persicae) (GPA) (MYZUPE); assay: Green peach aphid (GPA) foliar spray bioassay on cabbage seedlings; type: in vivo; conditions: 72 h, 200 ppm foliar spray on cabbage seedlings, graded after three days, Abbott-corrected % control, disclosed compounds (TABLE 2), read-out: GPA % Control (or Mortality) rating
Procedure: Bioassay for GPA was prepared as follows: Cabbage seedlings grown in 3-inch pots, with 2-3 small (3-5 cm) true leaves, were used as test substrate. The seedlings were infested with 20-50 GPA (adult and nymph stages) one day prior to chemical application. Four pots with individual seedlings were used for each treatment. The tested compounds (2 mg) were dissolved in 2 mL of acetone/methanol (1:1) solvent to form stock solutions of 1000 ppm tested compound. The stock solutions were diluted five times with an aqueous solution containing 0.025% TWEEN® 20 surfactant, which is polyoxyethylene (20) sorbitan monolaurate, to obtain the solution at 200 ppm tested compound. A hand-held aspirator-type sprayer was used for spraying the solution to both sides of cabbage leaves until runoff. The control plants (solvent check) were sprayed with the diluent only containing 20% by volume of acetone/methanol (1:1) solvent. Treated plants were held in a holding room for three days at approximately 25° C. and ambient relative humidity (RH) prior to grading. Evaluation was conducted by counting the number of live aphids per plant under a microscope. Percent control was measured by using Abbott's correction formula (W. S. Abbott, “A Method of Computing the Effectiveness of an Insecticide,” J. Econ. Entomol. 18 (1925), pp. 265-267) as follows. Corrected % Control=100*(X−Y)/X
X=No. of live aphids on solvent check plants and
Y=No. of live aphids on treated plants
as §1

SMILES | mortality at 200 ppm [1] | mortality at 200 ppm [2]
O=C1c2cn(-c3cccnc3)nc2CCN1c1ccc(C(F)(F)F)cn1 [Compound F37, 2-(pyridin-3-yl)-5-(5-(trifluoromethyl)pyrdin-2-yl)-6,7-dihydro-2H-pyrazolo[4,3-c]pyridin-4(5H)-one] | 80 to 100% | 80 to 100%
O=C1c2cn(-c3cccnc3)nc2CCN1c1cc(C(F)(F)F)ncn1 [Compound F48, 2-(3-Pyridyl)-5-[6-(trifluoromethyl)pyrimidin-4-yl]-6,7-dihydropyrazolo[4,3-c]pyridin-4-one] | 0 to 80% | 80 to 100%
CON=C(C)CN1CCc2nn(-c3cccnc3)cc2C1=O (single isomer, unassigned) [Compound P30, 5-(2-(methoxyimino)propyl)-2-(pyridin-3-yl)-2,5,6,7-tetrahydro-4H-pyrazolo[4,3-c]pyridin-4-one] | 80 to 100% | 80 to 100%
O=C1c2cn(-c3cccnc3)nc2CCN1CCSCCC(F)(F)F [Compound F19, 2-(pyridin-3-yl)-5-(2-((3,3,3-trifluoropropyl)thio)ethyl)-6,7-dihydro-2H-pyrazolo[4,3-c]pyridin-4(5H)-one] | 80 to 100% | 80 to 100%
CN1CCc2nn(-c3cccnc3)cc2C1=O [Compound F28, 5-methyl-2-(pyridin-3-yl)-6,7-dihydro-2H-pyrazolo[4,3-c]pyridin-4(5H)-one] | 0 to 80% | 80 to 100%
